How the values were obtained:
[1] = clinical phase I trial, docetaxel plasma pharmacokinetics; assay type: in vivo, human; conditions: 20 mg docetaxel liquid formulation; 100 mg ritonavir at t=0 plus 100 mg 4 hours after docetaxel; patient 306
Description: 10 patients participated in an ongoing clinical phase I trial.
These patients were given medication which consisted of a liquid formulation of docetaxel or a solid composition comprising a solid dispersion of docetaxel, PVP-K30 and SDS (referred to hereinafter as MODRA).
Docetaxel dose: 30 mg for all patients (with the exception of patient 306 who received 20 mg docetaxel). The 30 mg dose was prepared as follows: 3.0 mL Taxotere® premix for intravenous administration (containing 10 mg docetaxel per ml in polysorbate 80 (25% v/v), ethanol (10% (w/w), and water) was mixed with water to a final volume of 25 mL. This solution was orally ingested by the patient with 100 mL tap water.
Docetaxel dose: 30 mg; 2 capsules with 15 mg docetaxel per capsule were ingested. Formulation E from the previous example (1/11 docetaxel, 9/11 PVP-K30 and 1/11 SDS) was selected for further testing in the clinical trial. A new batch of formulation E was produced by dissolving 1200 mg docetaxel anhydrate in 120 mL of t-butanol, and 10800 mg PVP-K30 and 1200 mg SDS (see table 13) in 80 mL of Water for Injection. The docetaxel/t-butanol solution was added to the PVP-K30/SDS/WfI solution under constant stirring. […]
The bioavailability of the MODRA capsules was calculated by: […]

[2] = docetaxel powder dissolution test, 25 mL water in beaker; assay type: physicochemical; conditions: for maximum docetaxel concentration reached / maximum docetaxel in solution, % of total docetaxel present: ±6 mg docetaxel
Description: An amount of powder, equal to approximately 6 mg Docetaxel, was placed in a 50 mL beaker. A magnetic stirring bar and 25 mL water were added to the beaker. The solution was stirred at 720 rpm, and kept at approximately 37° C. Samples were collected at various timepoints, and filtrated using a 0.45 μm filter before they were diluted with a 1:4 v/v mixture of methanol and acetonitrile. The filtrated and diluted samples were subsequently analyzed by HPLC-UV (see table 15).

| fold increase of docetaxel AUC by second boosting dose of ritonavir [1] [fold] | time at which equilibrium concentration is reached [2] [min] | time of stirring to maximum concentration ([2]; 25 mL WfI, 37° C., 720 rpm) [min] | equilibrium docetaxel in solution, % of total docetaxel present ([2]; after precipitation) [%] | equilibrium docetaxel concentration ([2]; after precipitation, 25 mL WfI, 37° C., 720 rpm) | maximum docetaxel concentration reached ([2]; 25 mL WfI, 37° C., 720 rpm) | maximum docetaxel in solution, % of total docetaxel present ([2]; 25 mL WfI, 37° C., 720 rpm) [%] | solubility from 10 to 60 minutes ([2]; 10 to 60 minutes) | SMILES |
| --- | --- | --- | --- | --- | --- | --- | --- | --- |
| 1.5 | – | – | – | – | – | – | – | CC(=O)O[C@@]12CO[C@@H]1C[C@H](O)[C@@]1(C)C(=O)[C@H](O)C3=C(C)[C@@H](OC(=O)[C@H](O)[C@@H](NC(=O)OC(C)(C)C)c4ccccc4)C[C@@](O)([C@@H](OC(=O)c4ccccc4)[C@H]21)C3(C)C [docetaxel] |
| – | 15 | 5 | ~2 | approximately 6 μg/mL | approximately 12 μg/mL | ~4.7 | – | CC(=O)O[C@@]12CO[C@@H]1C[C@H](O)[C@@]1(C)C(=O)[C@H](O)C3=C(C)[C@@H](OC(=O)[C@H](O)[C@@H](NC(=O)OC(C)(C)C)c4ccccc4)C[C@@](O)([C@@H](OC(=O)c4ccccc4)[C@H]21)C3(C)C [Formulation A, Anhydrous Docetaxel] |
| – | – | 0.5 | – | – | 32 µg/mL | 13 | comparable to formulation A | CC(=O)O[C@@]12CO[C@@H]1C[C@H](O)[C@@]1(C)C(=O)[C@H](O)C3=C(C)[C@@H](OC(=O)[C@H](O)[C@@H](NC(=O)OC(C)(C)C)c4ccccc4)C[C@@](O)([C@@H](OC(=O)c4ccccc4)[C@H]21)C3(C)C [Formulation B, Amorphous Docetaxel] |
